Experimental data published in US20080268533A1, “Methods and Compositions Utilizing Myc and Gsk3Beta to Manipulate the Pluripotency of Embryonic Stem Cells” (University of Georgia Research Foundation, Inc., priority 2004, published 2008).
Residues, ends and D or L forms follow the SMILES beside them. *: point of attachment. Cbz = O=C(OCc1ccccc1)*

Tests used:
BG01 cells = experiment: LY 294002 induced definitive endoderm (DE) formation, Sox17 Q-PCR; assay type: cell-based, human; settings: BG01 on matrigel in MEF-CM, 60 μM LY 294002, BIO approx. 0.1-5 μM, MeBIO approx. 1-5, 3-4 days, Sox17 mRNA by Q-PCR
Method: Q-PCT was performed using relative quantitation using SYBR Green chemistry on the Rotor Gene 3000 instrument (Corbett Research) and a two-step RT-PCR format. Primers were designed to lie over exon-exon boundaries or span introns of at least 800 bp when possible, as this has been empirically determined to eliminate amplification from contaminating genomic DNA.
Total RNA was isolated using RNeasy (Qiagen) and quantitated using RiboGreen (Molecular Probes). Reverse transcription from 350-500 ng of total RNA was carried out using the iScript reverse transcriptase kit (BioRad), which contains a mix of oligo-dT and random primers. Each 20 μL reaction was subsequently diluted up to 100 μL total volume and 3 μL was used in each 10 μL Q-PCR reaction containing 400 nM forward and reverse primers and 5 μL 2×SYBR Green master mix (Qiagen). Two step cycling parameters were used employing a 5 second denature at 85-94° C. (specifically selected according to the melting temp of the amplicon for each primer set) followed by a 45 second anneal/extend at 60° C. Fluorescence data was collected during the last 15 seconds of each extension phase. A three point, 10-fold dilution series was used to generate the standard curve for each run and cycle thresholds (Ct's) were converted to quantitative values based on this standard curve. The quantitated values for each sample were normalized to housekeeping gene performance and then average and standard deviations were calculated for triplicate samples. At the conclusion of PCR cycling, a melt curve analysis was performed to ascertain the specificity of the reaction. A single specific product was indicated by a single peak at the Tm appropriate for that PCR amplicon.
Both Cyclophilin G and GUS were used to calculate a normalization factor for all samples. The use of multiple HGs simultaneously reduces the variability inherent to the normalization process and increases the reliability of the relative gene expression values (Vandesompele et al., 2002, Genome Biol., 3:RESEARCH0034). […]

GSK3β^S9 phosphorylation = assay type: cell-based, murine; settings: 6 hours, CA 2 nM, OA 2 nM
Method: MESCs and d2 EBs were treated for the short-term (6 hours) with phosphatase inhibitors of varying specificities.

GSK3β [1] = molecular target: T1, GSK3β (Mus musculus, UniProt Q9WV60); experiment: GSK3β kinase assay on immunoprecipitate, MBP substrate; assay type: biochemical; settings: day 6 EB lysates, inhibitor 3 μM in ethanol
T1 construct: endogenous in cells; host or cells: day 6 embryoid bodies derived from mouse ES cells (D3 / R1-EGFP)
T1 sequence (Q9WV60 whole entry): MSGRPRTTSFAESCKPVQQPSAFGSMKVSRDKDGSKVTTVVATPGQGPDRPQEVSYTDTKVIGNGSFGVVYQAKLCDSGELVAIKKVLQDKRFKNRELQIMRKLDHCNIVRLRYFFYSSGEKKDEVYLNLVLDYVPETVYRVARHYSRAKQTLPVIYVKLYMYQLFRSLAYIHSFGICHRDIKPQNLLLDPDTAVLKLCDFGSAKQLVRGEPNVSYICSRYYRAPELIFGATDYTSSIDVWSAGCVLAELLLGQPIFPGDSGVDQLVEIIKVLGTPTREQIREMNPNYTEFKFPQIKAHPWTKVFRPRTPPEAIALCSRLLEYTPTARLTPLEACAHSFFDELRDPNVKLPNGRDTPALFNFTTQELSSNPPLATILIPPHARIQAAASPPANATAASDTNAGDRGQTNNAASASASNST
Method: Cell lysate (300 μg total protein) was adjusted to 1 mg/ml with cell lysis buffer and tumbled with 3 μg of primary antibody for 3 hours at 4° C. 30 μL of protein A Sepharose beads were added and tumbled for a further 1 hour at 4° C. The beads were washed three times with 1 ml of cold lysis buffer and once with 1 ml of kinase buffer (50 mM Hepes pH 7.5, 10 mM MgCl2, 1 mM DTT, 2.5 mM EGTA and protease inhibitor cocktail II (Calbiochem)). Immune complexes bound to the PAS beads were resuspended in 30 μL of kinase buffer with or without the addition of GSK3β inhibitor II (3 μM in ethanol, Calbiochem) or ethanol and incubated at 30° C. for 20 minutes. 10 μCi of [γ-^32P] ATP and 5 μg of myelin basic protein (MBP, Upstate Biotech) was added and the reactions incubated at 30° C. for a further 20 minutes. Reactions were terminated by the addition of 2×SDS load buffer, heated at 95° C. for 2 minutes and resolved on a 12% SDS-polyacrylamide gel. Kinase activities were quantitated by phosphorimager analysis.
A common mechanism that triggers c-myc degradation is through its phosphorylation at threonine 58 (T58) by GSK3β (Hoang et al., (1995) Mol. Cell. Biol., 15:4031-4042; Sears et al., (2000) Genes Dev., 14:2501-2514; Gregory et al., (2003) J. Biol. Chem., 278:51606-51612). […]

c-myc = c-myc protein stability assay with proteosome inhibitor (immunoblot); assay type: cell-based, mouse; settings: EBs (−LIF), MG132 5 μM, 3 hours prior to harvesting
Method: Cells were lysed by incubating for one hour on ice in lysis buffer consisting of 50 mM Hepes pH 7.5, 1 mM EDTA, 1 mM EGTA, 250 mM NaCl, 10% glycerol, 0.1% Tween-20, 10 μg/ml TPCK, 50 μg/ml TLCK, 170 μg/ml PMSF, 0.5 mg/ml leupeptin, 0.7 mg/ml pepstatin and phosphatase inhibitor cocktail II (Calbiochem) with occasional vortexing/pipetting. Whole cell extracts (20-40 μg total protein) were separated by 10% SDS-PAGE, transferred to nitrocellulose membranes (BioRad), blocked with 3% BSA in TBSE (Tris HCl pH 7.5, 150 mM NaCl, 2 mM EDTA and 0.1% NP40) and probed with the indicated antibodies at 4° C. The following antibodies were used: anti-c-myc (N-262; Santa Cruz), anti-Oct4 (N-19; Santa Cruz), anti-tubulin (Serotech), anti-HDAC1 (Zymed), anti-Cdk2 (M2; Santa Cruz), anti-GSK3β (Transduction Laboratories). The anti-HDAC1 antibody detects both HDAC1 and HDAC2 and accordingly, a doublet is seen by immunoblot analysis. An antibody that recognizes the T58 phosphorylated form of c-myc (T58/S62, Cell Signaling Technology) was used to evaluate the status of c-myc^T58. […]
If so, it was predicted that c-myc would have enhanced stability. To test this possibility, the stability of c-myc was determined in undifferentiated ES cells relative to other cell types where its stability is in the order of 30 minutes or less (Hann & Eisenman, (1984) Mol. Cell. Biol., 4:2486-2497). […]

GSK3β [2] = experiment: GSK3β nuclear localization in EBs after OA treatment (staining); assay type: cell-based, murine; settings: OA added to EBs, short incubation; data not shown
Text: A key issue relating to the understanding of self-renewal is determining how GSK3β activity is suppressed in ESCs but activated in cells committed to differentiate. […] The cytoplasmic localization of GSK3β in mESCs was corroborated by subcellular fractionation using hypotonic lysis (FIG. 3).
This mechanism accounts for the observed decline in phospho-S9 and activation of GSK3β that occurs during the early stages of differentiation. CA inhibits PP1 and PP2A in contrast to OA, which selectively targets PP2A. This implicated PP2A as a S9 phosphatase in this system. This is supported by experiments showing that PP2A complexes with GSK3 and c-myc in d2 EBs (FIG. 4C). […] While it is possible that nuclear GSK3β was degraded during OA treatment and nascent GSK3β retained in the cytoplasm, it is also likely that GSK3β is transported out of the nucleus in response to OA treatment since only short incubation periods were used and GSK3β is normally a stable protein. This would be consistent with a model where GSK3β localization is controlled by the phosphorylation status of S9. It is known that PP2A dephosphorylates S62 on c-myc, resulting in its degradation (Sears, (2004) Cell Cycle, 3(9):1133-7).

O=C1Nc2cc(Br)ccc2/C1=C1/Nc2ccccc2/C1=N\O [BIO, 6-bromoindirubin-3′-oxime]
LY 294002 induced DE formation as determined by Sox17 expression (BG01 cells): blocks LY 294002 induced DE formation

COC[C@@H]([C@H](O)[C@H](O)C(=O)NCC[C@H](C)c1nc(/C=C/C[C@@H]2O[C@]3(C[C@@H](O)[C@@H]2C)O[C@H]([C@H](C[C@H](O)[C@H](C)[C@H](O)[C@H](C)/C=C(C)/C(C)=C/C=C/C(C)=C\C#N)OC)[C@H](OP(=O)(O)O)C3(C)C)co1)N(C)C [Calyculin A]
GSK3β S9 phosphorylation in d2 EBs (GSK3β^S9 phosphorylation): significantly increased S9 phosphorylation

Ic1cccc(CSc2nnc(-c3ccncc3)o2)c1 [GSK3β inhibitor II]
immunoprecipitated GSK3β kinase activity (GSK3β [1]): sensitive

CC(C)C[C@@H](C=O)NC(=O)[C@H](CC(C)C)NC(=O)[C@H](CC(C)C)NC(=O)OCc1ccccc1 [MG132] (Cbz-Leu-Leu-Leu-aldehyde)
turnover of c-myc protein following LIF withdrawal (c-myc): blocked

CN1C(=O)/C(=C2\Nc3ccccc3\C2=N/O)c2ccc(Br)cc21 [MeBIO]
LY 294002 induced DE formation as determined by Sox17 expression (BG01 cells; listed as MeBio): but not MeBio, blocks LY 294002 induced DE formation
LY 294002 induced DE formation as determined by Sox17 expression (BG01 cells; listed as meBio): but not meBio, blocked LY 294002 induced DE formation

C=C1[C@@H](O)[C@@H]2O[C@]3(CC[C@H](/C=C/[C@@H](C)[C@@H]4CC(C)=C[C@@]5(O[C@H](C[C@@](C)(O)C(=O)O)CC[C@H]5O)O4)O3)CC[C@H]2O[C@@H]1[C@@H](O)C[C@H](C)[C@H]1O[C@@]2(CCCCO2)CC[C@H]1C [okadaic acid]
GSK3β staining in the nucleus (GSK3β [2]): GSK3β staining in the nucleus disappeared
GSK3β S9 phosphorylation in d2 EBs (GSK3β^S9 phosphorylation): significantly increased S9 phosphorylation
